Measured values published in patent publication US7329665B2, “Quinazolinone derivative” (Dainippon Sumitomo Pharma Co., Ltd., priority 2001, dated 2008).

Test system: rhythmic contractions of the bladder
Assay: Effect on rhythmic contractions of bladder (cystometry in urethane-anesthetized rats, i.v. administration)
Type: in vivo
Settings: female SD-rats under urethane anesthesia, intravenous, ascending doses in 10% PEG, relative to vehicle; for Contractile amplitude: ED30: mean amplitude of bladder contraction during 10-minute period after administration; for Contractile frequency: ED30: mean frequency of bladder contraction during 10-minute period after administration
Description: Effect on Rhythmic Contractions of Bladder This test was carried out by some modification of the method of Hedge et al. [Hedge S S. Choppin A. Bonhaus D. Briaud S. Loeb M. Moy T M. Loury D. Eglen R M., British Journal of Pharmacology. 120(8):1409-18, 1997]. Female SD-rats were subjected to abdominal midline incision under urethane anesthesia (0.6 g/kg, s.c. and i.p.), the ureters were ligated, and its kidney side was cut off. A polyethylene cannula was inserted from the urethra into the bladder and the urethra was ligated. The other end of the cannula was connected to a three way connector, to which a constant infusion pump having a 20 ml attached syringe and a pressure transducer for cystometry were also connected. A cannula for administration of a test sample was inserted into the jugular vein and a cannula for measurement of blood pressure and heart rate was inserted into the carotid artery. The intravesical pressure, blood pressure and heart rate were continuously recorded on a polygraph. Physiological saline was infused until rhythmic contractions of the bladder were observed, and after having confirmed stable rhythmic contractions of the bladder, vehicle (10% PEG) and solutions of a test sample dissolved in 10% PEG were administered intravenously in turn from its lower dose. The mean of amplitude and frequency of bladder contraction during a 10-minute period after administration were measured at each dose level, and their rates of change relative to the values obtained when the vehicle alone was administered were calculated, thereby determining ED30 values for the contractile amplitude and the contractile frequency, respectively. It is apparent from Table 1 that the compounds of the present invention depressed not only the contractile amplitude but also the contractile frequency.

Compound	Contractile amplitude: ED30	Contractile frequency: ED30
CCCc1cccc(CN2CCC(N3C(=O)Nc4ccccc4C3c3ccccc3)CC2)c1 (stereo not shown) [Example 2-1, Optically Active Form of 3-[1-(3-propylphenylmethyl)piperidin-4-yl]-4-phenyl-3,4-dihydro-2(1H)-quinazolinone]	1.09 mg/kg	0.70 mg/kg
O=C1Nc2ccccc2C(c2ccccc2)N1C1CCN(Cc2cccc(OCC(F)(F)F)c2)CC1 (stereo not shown) [Example 2-4, Optically Active Form of 3-{1-[3-(2,2,2-trifluoroethoxy)phenylmethyl]piperidin-4-yl}-4-phenyl-3,4-dihydro-2(1H)-quinazolinone]	1.42 mg/kg	1.35 mg/kg
O=C1Nc2ccccc2C(c2ccccc2)N1C1CCN(Cc2cccc(OC(F)(F)F)c2)CC1 (single isomer, unassigned; (+)) [Example 1, (+)-3-{1-[3-(trifluoromethoxy)benzyl]piperidin-4-yl}-4-phenyl-3,4-dihydro-2(1H)-quinazolinone]	1.71 mg/kg	1.31 mg/kg
CC(C)Oc1cccc(CN2CCC(N3C(=O)Nc4ccccc4C3c3ccccc3)CC2)c1 (stereo not shown) [Example 2-3, Optically Active Form of 3-[1-(3-isopropoxyphenylmethyl)piperidin-4-yl]-4-phenyl-3,4-dihydro-2(1H)-quinazolinone]	1.10 mg/kg	1.54 mg/kg
Cc1cccc(CN2CCC(N3C(=O)Nc4ccccc4C3C(C)C)CC2)n1 (single isomer, unassigned; (+)) [Example 3, (+)-4-isopropyl-3-{1-[(6-methyl-2-pyridinyl)methyl]piperidin-4-yl}-3,4-dihydro-2(1H)-quinazolinone]	0.94 mg/kg	1.79 mg/kg
